Measurements published in patent EP4603105A1, “PHARMACEUTICAL COMPOSITION CONTAINING CYCLIC COMPOUND HAVING SELECTIVE KRAS INHIBITORY EFFECT AGAINST HRAS AND NRAS” (CHUGAI SEIYAKU KABUSHIKI KAISHA, priority 2022, dated 2024).
Where a SMILES comes first, the peptide text is derived from it. Bridges are numbered along the chain shown (N, C = ends). [ ]: non-standard residue; d: D form. The star is where a group is joined. hPhe(3-Cl-4-CF3) = N[C@@H](CCc1ccc(C(F)(F)F)c(Cl)c1)C(=O)O; NPrPhe(4-CF3) = CCCN[C@@H](Cc1ccc(C(F)(F)F)cc1)C(=O)O; NMeGly(cPent) = CN[C@H](C(=O)O)C1CCCC1; NMeD = CN[C@@H](CC(=O)O)C(=O)O; NMeL = CN[C@@H](CC(C)C)C(=O)O; Pip = O=C(O)[C@@H]1CCCCN1; Morpholide = C1CN(*)CCO1; Ac5c = NC1(C(=O)O)CCCC1; Aze = O=C(O)[C@@H]1CCN1; Ac4c = NC1(C(=O)O)CCC1; NEtG = CCNCC(=O)O; Sar = CNCC(=O)O

Legend:
[1] = biological target: GDP-bound NRAS wild-type protein (Homo sapiens, UniProt P01111); experiment: Binding to NRAS by surface plasmon resonance (SPR), KD and KD ratio to KRAS
Method in brief: (§1)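 Single-cycle kinetics on GDP-loaded biotin-Avi RAS captured to ~100–300 RU; 75 s ascending injections, 100 µL/min, 30°C. HBS pH 7.4 + 10 mM MgCl2/10 µM GDP/4% DMSO. 1:1 fit, KD.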

[2] = biological target: GDP-bound KRAS wild-type protein (Homo sapiens, UniProt P01116); experiment: Binding to KRAS by surface plasmon resonance (SPR), dissociation constant KD
Method in brief: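 GDP-loaded biotinylated Avi-tag RAS proteins (E. coli-expressed) captured on a Biotin CAPture chip at ~100–300 RU; single-cycle kinetics at 30°C, 100 µL/min, 75 s injections of rising compound concentrations. HBS pH 7.4 running buffer with 1 mM DTT, 10 mM MgCl2, 10 µM GDP, 4% DMSO. KD from 1:1 binding fit.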

HRAS wild-type protein = HRAS wild-type protein (Homo sapiens, UniProt P01112); experiment: Binding to HRAS by surface plasmon resonance (SPR), KD and KD ratio to KRAS
Method in brief: as §1

[3] = system: human lung cancer strain NCI-H441; assay type: cell-based
Method in brief: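 Proliferation was scored by […] measured after the reagent was added to cultures kept at 37°C in 5% carbon dioxide.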

[4] = ratio of the KD value with respect to GDP-bound NRAS wild-type protein to the KD value with respect to KRAS
[5] = Single Cycle Kinetics, 1:1 binding model
[6] = ratio of the KD value with respect to HRAS wild-type protein to the KD value with respect to KRAS
[7] = ratio of KD for GDP-bound NRAS wild-type protein to KD for KRAS
[8] = ratio of KD for HRAS wild-type protein to KD for KRAS
[9] = ratio of KD value for GDP-bound NRAS wild-type protein to KD value for KRAS (SPR)
[10] = ratio of KD value for HRAS wild-type protein to KD value for KRAS (SPR)

Sequence of GDP-bound NRAS wild-type protein (P01111 whole entry): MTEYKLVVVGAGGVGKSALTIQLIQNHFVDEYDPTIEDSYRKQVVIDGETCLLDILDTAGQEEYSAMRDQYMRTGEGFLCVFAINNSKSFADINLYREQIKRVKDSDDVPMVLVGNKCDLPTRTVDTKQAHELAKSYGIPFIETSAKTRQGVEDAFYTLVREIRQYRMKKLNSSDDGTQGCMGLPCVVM
Sequence of HRAS wild-type protein (P01112 whole entry): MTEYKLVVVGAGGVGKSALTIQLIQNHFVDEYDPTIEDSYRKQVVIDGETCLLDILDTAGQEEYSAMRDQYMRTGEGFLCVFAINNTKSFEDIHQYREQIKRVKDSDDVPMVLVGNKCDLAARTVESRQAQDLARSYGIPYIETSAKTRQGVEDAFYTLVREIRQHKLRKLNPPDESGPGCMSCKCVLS
Sequence of GDP-bound KRAS wild-type protein (P01116 1-188 isoform P01116-2): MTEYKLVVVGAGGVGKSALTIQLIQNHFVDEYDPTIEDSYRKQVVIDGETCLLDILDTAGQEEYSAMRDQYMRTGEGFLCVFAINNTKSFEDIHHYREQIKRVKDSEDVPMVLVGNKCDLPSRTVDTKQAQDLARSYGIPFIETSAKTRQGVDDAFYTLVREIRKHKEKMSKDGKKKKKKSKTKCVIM

Structure (SMILES)	Kd [2, 5] [nM]	IC50 [3] [nM]	Kd ([2]; 1:1 binding model) [nM]	Kd ([2]; Single Cycle Kinetics) [nM]	NRAS /KRAS [1, 4]	HRAS /KRAS (HRAS wild-type protein; [6])	NRAS /KRAS [1, 7]	HRAS /KRAS (HRAS wild-type protein; [8])	NRAS /KRAS [1, 9]	HRAS /KRAS (HRAS wild-type protein; [10])
CCCN1C(=O)CN(C)C(=O)[C@@H]2CCN2C(=O)[C@H]([C@@H](C)CC)NC(=O)[C@H](CC(C)C)N(C)C(=O)C[C@@H](C(=O)N2CCOCC2)N(C)C(=O)[C@H](C2CCCC2)N(C)C(=O)C2(CCC2)NC(=O)[C@@H]2CCCN2C(=O)[C@H](CCc2ccc(C(F)(F)F)c(Cl)c2)NC(=O)CN(C)C(=O)[C@@H]1Cc1ccc(C(F)(F)F)cc1 [PP0402] ([NMeL]I[Aze][Sar][NPrPhe(4-CF3)][Sar][hPhe(3-Cl-4-CF3)]P[Ac4c][NMeGly(cPent)][NMeD]-Morpholide; lactam N-11)	1.2	58.1	–	–	B (a compound having 3 or more and less than 10 is denoted as B)	C (A compound having a KD ratio of 0.1 or more and less than 3 is denoted as C)	–	–	–	–
CCO[C@@H]1C[C@H]2C(=O)NC3(CC(C)(C)C3)C(=O)N(C)[C@@H](C3CCCC3)C(=O)N(C)[C@H](C(=O)N(C)CC)CC(=O)N(C)[C@@H](CC(C)C)C(=O)N[C@@H]([C@@H](C)CC)C(=O)N(C)CC(=O)N(C)[C@H]3C/C=C\CCN(C3=O)[C@@H](Cc3ccc(C(F)F)cc3)C(=O)N(C)CC(=O)N[C@@H](CCc3cc(F)c4c(c3)OCC4)C(=O)N2C1 [PP3150]	–	191	2.9	–	–	–	A (a compound having 10 or more and less than 20 is denoted as A)	A (a compound having 10 or more and less than 20 is denoted as A)	–	–
CCCCO[C@H]1CCN2C(=O)[C@H](CCc3cc(F)c(C(F)(F)F)c(F)c3)NC(=O)CN(C)C(=O)[C@H](Cc3ccc(C(F)(F)F)cc3)N3CCCCC[C@@H](C3=O)N(C)C(=O)CN(C)C(=O)[C@H]([C@@H](C)CC)NC(=O)[C@H](CC(C)C)N(C)C(=O)C[C@@H](C(=O)N3CCOCC3)N(C)C(=O)[C@H](C3CCCC3)N(C)C(=O)C3(CCC3)NC(=O)[C@H]12 [PP1009]	–	195	–	2	–	–	B (a compound having 3 or more and less than 10 is denoted as B)	B (a compound having 3 or more and less than 10 is denoted as B)	–	–
CCCN1C(=O)CN(C)C(=O)CN(CC)C(=O)[C@H]([C@@H](C)CC)NC(=O)[C@H](CC(C)C)N(C)C(=O)C[C@@H](C(=O)N2CCOCC2)N(C)C(=O)[C@H](C2CCCC2)N(C)C(=O)C2(CCCC2)NC(=O)[C@@H]2CCCCN2C(=O)[C@H](CCc2ccc(C(F)(F)F)c(Cl)c2)NC(=O)CN(C)C(=O)[C@@H]1Cc1ccc(C(F)(F)F)cc1 [PP0297] ([NMeL]I[NEtG][Sar][NPrPhe(4-CF3)][Sar][hPhe(3-Cl-4-CF3)][Pip][Ac5c][NMeGly(cPent)][NMeD]-Morpholide; lactam N-11)	–	74.3	2.3	–	–	–	B (a compound having 3 or more and less than 10 is denoted as B)	C (A compound having a KD ratio of 0.1 or more and less than 3 is denoted as C)	–	–
CCO[C@@H]1C[C@H]2C(=O)NC3(CC(C)(C)C3)C(=O)N(C)[C@@H](C3CCCC3)C(=O)N(C)[C@H](C(=O)N(C)C)CC(=O)N(C)[C@@H]([C@H](C)OC)C(=O)N[C@@H]([C@@H](C)CC)C(=O)N3CCC[C@H]3C(=O)N(C)[C@H]3C/C=C\CCN(C3=O)[C@@H](Cc3ccc(C(F)(F)F)cc3)C(=O)N(C)CC(=O)N[C@@H](CCc3cc(F)c(C(F)(F)F)c(F)c3)C(=O)N2C1 [PP3181]	–	51	0.96	–	–	–	A (a compound having 10 or more and less than 20 is denoted as A)	B (a compound having 3 or more and less than 10 is denoted as B)	–	–
CC[C@H](C)[C@@H]1NC(=O)[C@H](CC(C)C)N(C)C(=O)C[C@@H](C(=O)N(C)C)N(C)C(=O)[C@H](C2CCCC2)N(C)C(=O)C2(CCC2)NC(=O)[C@@H]2C[C@H](C)CN2C(=O)[C@H](CCc2ccc(C(F)(F)F)c(OC)c2)NC(=O)CN(C)C(=O)[C@H](Cc2ccc(C)cc2)N2CC/C=C\C[C@@H](C2=O)N(C)C(=O)CN(C)C1=O [PP1865]	0.083	36	–	–	–	–	–	–	A (a compound having 10 or more and less than 20 is denoted as A)	B (a compound having 3 or more and less than 10 is denoted as B)
CCO[C@@H]1C[C@H]2C(=O)NC3(CC(C)(C)C3)C(=O)N(C)[C@@H](C3CCCC3)C(=O)N(C)[C@H](C(=O)N(C)CC)CC(=O)N(C)[C@@H](CC(C)C)C(=O)N[C@@H]([C@@H](C)CC)C(=O)N(C)CC(=O)N(C)[C@H]3C/C=C\CCN(C3=O)[C@@H](Cc3ccc(C(F)F)cc3)C(=O)N(C)CC(=O)N[C@@H](CCc3cc(F)c(Cl)c(OC)c3)C(=O)N2C1 [PP3142]	–	39.3	0.44	–	–	–	A (a compound having 10 or more and less than 20 is denoted as A)	A (a compound having 10 or more and less than 20 is denoted as A)	–	–
C=CCCC[C@H]1C(=O)N[C@@H]([C@@H](C)CC)C(=O)N(C)CC(=O)N(C)[C@H]2CCCCCN(C2=O)[C@@H](Cc2ccc(C(F)(F)F)cc2)C(=O)N(C)CC(=O)N[C@@H](CCc2cc(F)c(C(F)(F)F)c(F)c2)C(=O)N2C[C@H](OCC)C[C@H]2C(=O)N[C@](C)(CC=C)C(=O)N(C)[C@@H](C2CCCC2)C(=O)N(C)[C@H](C(=O)N2CCOCC2)CC(=O)N1C [PP0880]	–	160	–	4.5	–	–	B (a compound having 3 or more and less than 10 is denoted as B)	B (a compound having 3 or more and less than 10 is denoted as B)	–	–
CCC[C@@H]1C[C@H]2C(=O)NC3(CC(C)(C)C3)C(=O)N(C)[C@@H](C3CCCC3)C(=O)N(C)[C@H](C(=O)N(C)C)CC(=O)N(C)[C@@H](CCC)C(=O)N[C@@H]([C@@H](C)CC)C(=O)N(C)CC(=O)N(C)[C@H]3C/C=C\CCN(C3=O)[C@@H](Cc3ccc(C)cc3)C(=O)N(C)CC(=O)N[C@@H](CCc3ccc(C(F)(F)F)c(Cl)c3)C(=O)N2C1 [PP2214]	0.3	29.6	–	–	A (a compound having 10 or more and less than 20 is denoted as A)	A (a compound having 10 or more and less than 20 is denoted as A)	–	–	–	–

Continued, in another order:

Kd [2, 5] [nM]	IC50 [3] [nM]	Kd ([2]; 1:1 binding model) [nM]	Kd ([2]; Single Cycle Kinetics) [nM]	Structure (SMILES)	NRAS /KRAS [1, 4]	HRAS /KRAS (HRAS wild-type protein; [6])	NRAS /KRAS [1, 7]	HRAS /KRAS (HRAS wild-type protein; [8])	NRAS /KRAS [1, 9]	HRAS /KRAS (HRAS wild-type protein; [10])
0.14	28.8	–	–	CCC[C@H]1C(=O)N[C@@H]([C@@H](C)CC)C(=O)N(C)CC(=O)N(C)[C@H]2C/C=C\CCN(C2=O)[C@@H](Cc2ccc(C)cc2)C(=O)N(C)CC(=O)N[C@@H](CCc2ccc(C(F)(F)F)c(OC)c2)C(=O)N2C[C@H](C)C[C@H]2C(=O)NC2(CCC2)C(=O)N(C)[C@@H](C2CCCC2)C(=O)N(C)[C@H](C(=O)N(C)C)CC(=O)N1C [PP1859]	–	–	–	–	A (a compound having 10 or more and less than 20 is denoted as A)	A (a compound having 10 or more and less than 20 is denoted as A)
0.41	16.2	–	–	CCCN1C(=O)CN(CC)C(=O)CN(C)C(=O)[C@H]([C@@H](C)CC)NC(=O)[C@H](CC(C)C)N(C)C(=O)C[C@@H](C(=O)N2CCOCC2)N(C)C(=O)[C@H](C2CCCC2)N(C)C(=O)C2(CCC2)NC(=O)[C@@H]2CCCN2C(=O)[C@H](CCc2ccc(C(F)(F)F)c(Cl)c2)NC(=O)CN(C)C(=O)[C@@H]1Cc1ccc(C(F)(F)F)cc1 [PP1948] ([NMeL]I[Sar][NEtG][NPrPhe(4-CF3)][Sar][hPhe(3-Cl-4-CF3)]P[Ac4c][NMeGly(cPent)][NMeD]-Morpholide; lactam N-11)	C (A compound having a KD ratio of 0.1 or more and less than 3 is denoted as C)	C (A compound having a KD ratio of 0.1 or more and less than 3 is denoted as C)	–	–	–	–
0.11	10.5	–	–	CCCN(C)C(=O)[C@@H]1CC(=O)N(C)[C@@H](C2CCC2)C(=O)N[C@@H]([C@@H](C)CC)C(=O)N(C)CC(=O)N(C)[C@H]2C/C=C\CCN(C2=O)[C@@H](Cc2ccc(C(F)(F)F)cc2)C(=O)N(C)CC(=O)N[C@@H](CCc2ccc(C(F)(F)F)c(OC)c2)C(=O)N2C[C@H](OCC)C[C@H]2C(=O)NC2(CCC2)C(=O)N(C)[C@@H](C2CCCC2)C(=O)N1C [PP2023]	A (a compound having 10 or more and less than 20 is denoted as A)	B (a compound having 3 or more and less than 10 is denoted as B)	–	–	–	–
–	10.4	0.082	–	CCO[C@@H]1C[C@H]2C(=O)NC3(CC(C)(C)C3)C(=O)N(C)[C@@H](C3CCCC3)C(=O)N(C)[C@H](C(=O)N(C)C)CC(=O)N(C)[C@@H]([C@H](C)OC)C(=O)N[C@@H]([C@@H](C)CC)C(=O)N(C)CC(=O)N(C)[C@H]3C/C=C\CCN(C3=O)[C@@H](Cc3ccc(C)cc3)C(=O)N(C)CC(=O)N[C@@H](CCc3cc(F)c(C(F)(F)F)c(F)c3)C(=O)N2C1 [PP3187]	–	–	A (a compound having 10 or more and less than 20 is denoted as A)	A (a compound having 10 or more and less than 20 is denoted as A)	–	–
–	2.8	0.076	–	CCO[C@@H]1C[C@H]2C(=O)NC3(CC(C)(C)C3)C(=O)N(C)[C@@H](C3CCCC3)C(=O)N(C)[C@H](C(=O)N(C)C)CC(=O)N(C)[C@@H]([C@@H](C)OC)C(=O)N[C@@H]([C@@H](C)CC)C(=O)N(C)CC(=O)N(C)[C@H]3C/C=C\CCN(C3=O)[C@@H](Cc3ccc(C)cc3)C(=O)N(C)CC(=O)N[C@@H](CCc3cc(F)c(C(F)(F)F)c(F)c3)C(=O)N2C1 [PP3208]	–	–	A (a compound having 10 or more and less than 20 is denoted as A)	A (a compound having 10 or more and less than 20 is denoted as A)	–	–
